Test system: D. melanogaster trans-heterozygous mwh+/+flr3 larvae of the HB cross
Experiment: SMART wing spot test, anti-mutagenicity, HB cross
Method: The somatic mutation and recombination test, or the wing spot test, using D. melanogaster was employed as an in vivo system to assess the mutagenicity and anti-mutagenicity of chrysin-ES. Two different crosses were conducted: (i) a standard cross (ST) and (ii) a high bioactivation cross (HB). The standard cross larvae were obtained from virgin female of flr3/TM3, Ser crossed with males of mwh/mwh, while the HB cross larvae expressing cytochrome P450 enzymes involved in xenobiotic biotransformation were obtained from virgin females of ORR/ORR; flr^3/In (3LR) TM3, ri p^psep l (3)89Aa bx^34e e Bd^s crossed with males of mwh/mwh. The flies were cultured at a constant temperature of 25 ± 1 °C and 60–70% RH at photoperiod 12:12 (light/dark). To evaluate the mutagenicity of chrysin and chrysin-ES, a hundred larva F1 progenies derived from the above crossing were fed with instant Drosophila medium (Formula 4-24®), Carolina, Burlington, NC, USA) containing chrysin or chrysin-ES (20–120 µg/mL). DI was used as a negative control, while 20 mM urethane (URE) was used as a positive control. The larvae were reared on each medium until pupation at 25 °C. After that, forty wings of surviving flies in each group were collected for mutant analysis. The mutant spots on the wings, including small single spots, large single spots, and twin spots, were counted. The statistical significance was calculated as previously described by Frei and Würgler.
Furthermore, the anti-mutagenicity of the samples was performed by a similar procedure as mentioned above.

[1] = NMU (sodium nitrite 36 mM: methylurea 10 mM) + 20 μg/mL

O=c1cc(-c2ccccc2)oc2cc(O)cc(O)c12 [Chrysin, 5,7-dihydroxyflavone]
Inhibitory Classification (MMC 0.05 mM + 80 μg/mL): Strong
Mutant spots per individual (number of spots), Large Single (MMC 0.05 mM + 80 μg/mL): 0.08 (3)
Mutant spots per individual (number of spots), Small Single (MMC 0.05 mM + 80 μg/mL): 0.98 (39)
Mutant spots per individual (number of spots), Total (MMC 0.05 mM + 80 μg/mL): 1.05 (42)
Mutant spots per individual (number of spots), Twin (MMC 0.05 mM + 80 μg/mL): 0 (0)
Inhibition (%) (MMC 0.05 mM + 120 μg/mL): 88%
Inhibitory Classification (MMC 0.05 mM + 120 μg/mL): Strong
Mutant spots per individual (number of spots), Large Single (MMC 0.05 mM + 120 μg/mL): 0.03 (1)
Mutant spots per individual (number of spots), Small Single (MMC 0.05 mM + 120 μg/mL): 0.55 (22)
Mutant spots per individual (number of spots), Total (MMC 0.05 mM + 120 μg/mL): 0.58 (23)
Mutant spots per individual (number of spots), Twin (MMC 0.05 mM + 120 μg/mL): 0 (0)
Inhibition (%) [1]: 54%
Inhibitory Classification [1]: Moderate
Mutant spots per individual (number of spots), Large Single [1]: 0.09 (3)
Mutant spots per individual (number of spots), Small Single [1]: 0.78 (25)
Mutant spots per individual (number of spots), Total [1]: 0.88 (28)
Mutant spots per individual (number of spots), Twin [1]: 0 (0)
Inhibitory Classification (NMU (sodium nitrite 36 mM: methylurea 10 mM) + 20 μg/mL, listed as chrysin): moderate (41–60%)
Inhibition (%) (NMU + 40 μg/mL): 80%
Inhibitory Classification (NMU + 40 μg/mL): Strong
Mutant spots per individual (number of spots), Large Single (NMU + 40 μg/mL): 0.05 (2)
Mutant spots per individual (number of spots), Small Single (NMU + 40 μg/mL): 0.30 (12)
Mutant spots per individual (number of spots), Total (NMU + 40 μg/mL): 0.38 (15)
Mutant spots per individual (number of spots), Twin (NMU + 40 μg/mL): 0.03 (1)
Inhibition (%) (NMU + 80 μg/mL): 81%
Inhibitory Classification (NMU + 80 μg/mL): Strong
Mutant spots per individual (number of spots), Large Single (NMU + 80 μg/mL): 0.04 (1)
Mutant spots per individual (number of spots), Small Single (NMU + 80 μg/mL): 0.32 (9)
Mutant spots per individual (number of spots), Total (NMU + 80 μg/mL): 0.36 (10)
Mutant spots per individual (number of spots), Twin (NMU + 80 μg/mL): 0 (0)
Inhibition (%) (NMU + 120 μg/mL): 95%
Inhibitory Classification (NMU + 120 μg/mL): Strong
Mutant spots per individual (number of spots), Large Single (NMU + 120 μg/mL): 0.05 (2)
Mutant spots per individual (number of spots), Small Single (NMU + 120 μg/mL): 0.05 (2)
Mutant spots per individual (number of spots), Total (NMU + 120 μg/mL): 0.10 (4)
Mutant spots per individual (number of spots), Twin (NMU + 120 μg/mL): 0 (0)
Inhibition (%) (URE 20 mM + 20 μg/mL): 84%
Inhibitory Classification (URE 20 mM + 20 μg/mL): Strong
Mutant spots per individual (number of spots), Large Single (URE 20 mM + 20 μg/mL): 0.15 (6)
Mutant spots per individual (number of spots), Small Single (URE 20 mM + 20 μg/mL): 1.55 (62)
Mutant spots per individual (number of spots), Total (URE 20 mM + 20 μg/mL): 1.70 (68)
Mutant spots per individual (number of spots), Twin (URE 20 mM + 20 μg/mL): 0 (0)
Inhibition (%) (URE 20 mM + 40 μg/mL): 84%
Inhibitory Classification (URE 20 mM + 40 μg/mL): Strong
Mutant spots per individual (number of spots), Large Single (URE 20 mM + 40 μg/mL): 0 (0)
Mutant spots per individual (number of spots), Small Single (URE 20 mM + 40 μg/mL): 1.75 (70)
Mutant spots per individual (number of spots), Total (URE 20 mM + 40 μg/mL): 1.75 (70)
Mutant spots per individual (number of spots), Twin (URE 20 mM + 40 μg/mL): 0 (0)
Inhibition (%) (URE 20 mM + 80 μg/mL): 92%
Inhibitory Classification (URE 20 mM + 80 μg/mL): Strong
Mutant spots per individual (number of spots), Large Single (URE 20 mM + 80 μg/mL): 0.03 (1)
Mutant spots per individual (number of spots), Small Single (URE 20 mM + 80 μg/mL): 0.88 (35)
Mutant spots per individual (number of spots), Total (URE 20 mM + 80 μg/mL): 0.90 (36)
Mutant spots per individual (number of spots), Twin (URE 20 mM + 80 μg/mL): 0 (0)
Inhibition (%) (URE 20 mM + 120 μg/mL): 89%
Inhibitory Classification (URE 20 mM + 120 μg/mL): Strong
Mutant spots per individual (number of spots), Large Single (URE 20 mM + 120 μg/mL): 0.08 (3)
Mutant spots per individual (number of spots), Small Single (URE 20 mM + 120 μg/mL): 1.08 (43)
Mutant spots per individual (number of spots), Total (URE 20 mM + 120 μg/mL): 1.18 (47)
Mutant spots per individual (number of spots), Twin (URE 20 mM + 120 μg/mL): 0.03 (1)
